Experimental data as given in patent US11441142B2, “FLS variant having increased activity” (KONKUK UNIVERSITY INDUSTRIAL COOPERATION CORPORATION, priority 2017, dated 2022).
Read-outs that look alike come from different tables or passages of the source.

How the values were obtained:
[1] = system: Lactobacillus brevis DDH (diol dehydratase), wild type, SEQ ID NO: 18; settings: substrate 2,3-butanediol, coenzyme B12; cited from earlier work
[2] = target: T1, Clostridium autoethanogenum BDH (2,3-butanediol dehydrogenase), wild type, SEQ ID NO: 14 (Clostridium autoethanogenum, UniProt A0ABM5NRF0); test: kinetic parameters of BDH; format: biochemical; settings: coenzyme NADH, pH 7.5, room temperature
T1 sequence (A0ABM5NRF0 1-351): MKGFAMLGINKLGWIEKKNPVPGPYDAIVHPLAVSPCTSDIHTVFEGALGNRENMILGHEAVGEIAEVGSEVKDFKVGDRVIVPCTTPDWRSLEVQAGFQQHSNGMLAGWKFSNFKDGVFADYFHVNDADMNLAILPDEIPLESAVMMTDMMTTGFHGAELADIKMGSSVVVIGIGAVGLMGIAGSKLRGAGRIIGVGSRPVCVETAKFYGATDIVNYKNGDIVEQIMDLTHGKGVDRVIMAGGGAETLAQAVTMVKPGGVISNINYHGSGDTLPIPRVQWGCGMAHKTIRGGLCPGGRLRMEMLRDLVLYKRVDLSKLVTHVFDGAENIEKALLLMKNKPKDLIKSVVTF

[3] = target: T2, Clostridium autoethanogenum BDH (2,3-butanediol dehydrogenase) variant BDH:S199A, SEQ ID NO: 16 (Clostridium autoethanogenum, UniProt A0ABM5NRF0, S199A); test: kinetic parameters of BDH:S199A; format: biochemical; settings: for kcat / kcat/Km: pH 7.5, room temperature
T2 sequence (A0ABM5NRF0 1-351 S199A): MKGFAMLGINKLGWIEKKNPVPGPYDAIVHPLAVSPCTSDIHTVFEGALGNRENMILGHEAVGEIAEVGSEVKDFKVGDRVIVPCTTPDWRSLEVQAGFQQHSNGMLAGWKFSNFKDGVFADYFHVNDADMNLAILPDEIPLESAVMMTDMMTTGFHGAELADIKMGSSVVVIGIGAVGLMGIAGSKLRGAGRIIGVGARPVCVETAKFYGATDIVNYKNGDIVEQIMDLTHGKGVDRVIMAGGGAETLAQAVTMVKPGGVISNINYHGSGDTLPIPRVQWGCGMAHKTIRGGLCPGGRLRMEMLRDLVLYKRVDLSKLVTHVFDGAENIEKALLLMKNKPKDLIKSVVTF
Description: (§1) The kinetic parameters of EtDH and EtDH:D46G were identified by reacting the EtDH and EtDH:D46G with a reaction mixture containing 100 mM glycine-NaOH buffer solution (pH 9.5), 5 mM Mg^2+, 3 mM NAD^+/NADP^+ and 0.5 to 100 mM ethanol at room temperature. The kinetic parameters of FLS and variants thereof were identified by reacting FLS and variants thereof with a reaction mixture containing 100 mM phosphate buffer solution (pH 8.0), 1 mM Mg^+, 0.1 mM TPP and 0.5 to 20 mM acetaldehyde at room temperature. The kinetic parameters of BDH and BDH:S199A were identified by reacting BDH and BDH:S199A with a reaction mixture containing 50 mM Tris-HCl buffer solution (pH 7.5), 0.2 mM NADPH, 1 mM DTT; 0.5 to 100 mM acetoin or 0.5 to 10 mM butanone at room temperature. The Km and kcat values were identified using nonlinear regression fitting of the Michaelis-Menten equation and the fitting were repeated three times.
(§2) In order to compare the catalytic efficiencies via measurement of kinetic parameters of cascade enzymes and variants thereof in accordance with the present disclosure, the following experiment was performed. Specifically, the kinetic parameters of EtDH and EtDH:D46G were identified by reacting EtDH and EtDH:D46G with a reaction mixture containing 100 mM glycine-NaOH buffer solution (pH 9.5), 5 mM Mg^2+, 3 mM NAD^+/NADP^+ and 0.5 to 100 mM ethanol at room temperature. The kinetic parameters of FLS and variants thereof were identified by reacting FLS and variants thereof with a reaction mixture containing 100 mM phosphate buffer solution (pH 8.0), 1 mM Mg^+, 0.1 mM TPP and 0.5 to 20 mM acetaldehyde at room temperature. The kinetic parameters of BDH and BDH:S199A were identified by reacting BDH and BDH:S199A with a reaction mixture containing 50 mM Tris-HCl buffer solution (pH 7.5), 0.2 mM NADPH, 1 mM DTT; and 0.5 to 100 mM acetoin or 0.5 to 10 mM butanone at room temperature. Km and kcat values as substrate affinity were identified using nonlinear regression fitting of the Michaelis-Menten equation and the fitting were repeated three times. The test results of DDH and NOX were compared with previous results [(S. Kwak, et al., Bioresource Technol., 2013, 135, 432), and (M. Kopke, et al., Appl. Environ. Microbiol., 2014, 80, 3394)].

[4] = system: Cupriavidus necator EtDH (ethanol dehydrogenase), wild type, SEQ ID NO: 4; settings: substrate ethanol, pH 9.5, room temperature
Description: as §1, §2

[5] = system: Cupriavidus necator EtDH (ethanol dehydrogenase) variant EtDH:D46G, SEQ ID NO: 6; settings: pH 9.5, room temperature
Description: as §1, §2

[6] = system: Lactobacillus rhamnosus NOX (NADH oxidase), SEQ ID NO: 2; settings: substrate O2, coenzyme NADH; cited from earlier work
[7] = substrate: CCC(C)=O; test: kinetic parameters of BDH; format: biochemical, Clostridium autoethanogenum; settings: other: substrate butanone, coenzyme NADPH (0.2 mM), pH 7.5, room temperature
[8] = substrate: CC(=O)C(C)O; test: kinetic parameters of BDH; format: biochemical, Clostridium autoethanogenum; settings: other: substrate acetoin, coenzyme NADPH (0.2 mM), pH 7.5, room temperature
[9] = substrate: CCC(C)=O; test: kinetic parameters of BDH:S199A; format: biochemical, Clostridium autoethanogenum; settings: other: substrate butanone, coenzyme NADPH (0.2 mM), pH 7.5, room temperature
[10] = substrate acetoin, coenzyme NADH
[11] = substrate acetoin, coenzyme NADPH (0.2 mM)
[12] = substrate butanone, coenzyme NADH
[13] = second line of EtDH:D46G, coenzyme printed NAD^+
[14] = substrate ethanol, coenzyme NAD^+ (3 mM)

C[C@H](O)[C@@H](C)O [2,3-butanediol]
Km [1]: 10400 µM | kcat [1]: 35 s⁻¹ | kcat/Km [1]: 3400 M⁻¹ s⁻¹

CC(=O)C(C)O (stereo not shown) [Acetoin]
kcat ([2]; substrate acetoin): 0 s⁻¹ | kcat/Km ([2]; substrate acetoin): 0 M⁻¹ s⁻¹ | kcat [3, 10]: 0 s⁻¹ | kcat/Km [3, 10]: 0 M⁻¹ s⁻¹ | kcat [3, 11]: 224.3 ± 9.72 s⁻¹ | kcat/Km [3, 11]: 19310 M⁻¹ s⁻¹

CCC(C)=O [Butanone]
kcat ([2]; substrate butanone): 0 s⁻¹ | kcat/Km ([2]; substrate butanone): 0 M⁻¹ s⁻¹ | kcat [3, 12]: 0 s⁻¹ | kcat/Km [3, 12]: 0 M⁻¹ s⁻¹ | catalytic efficiency compared to wild-type BDH ([3]; substrate butanone, coenzyme NADPH): increases catalytic efficiency

CCO [Ethanol]
kcat ([4]; coenzyme NADP^+ (3 mM)): 0 s⁻¹ | kcat/Km ([4]; coenzyme NADP^+ (3 mM)): 0 M⁻¹ s⁻¹ | Km ([4]; coenzyme NAD^+ (3 mM)): 370 ± 50 µM | kcat ([4]; coenzyme NAD^+ (3 mM)): 6.28 ± 0.11 s⁻¹ | kcat/Km ([4]; coenzyme NAD^+ (3 mM)): 17090 M⁻¹ s⁻¹ | Km [5, 13]: 600 ± 20 µM | kcat [5, 13]: 0.99 ± 0.03 s⁻¹ | kcat/Km [5, 13]: 1650 M⁻¹ s⁻¹ | Km [5, 14]: 570 ± 30 µM | kcat [5, 14]: 5.85 ± 0.08 s⁻¹ | kcat/Km [5, 14]: 9970 M⁻¹ s⁻¹

O=O [O2]
kcat [6]: 218.7 s⁻¹ | kcat/Km [6]: 3.77e+07 M⁻¹ s⁻¹

B1: Clostridium autoethanogenum BDH (2,3-butanediol dehydrogenase), wild type, SEQ ID NO: 14 (Clostridium autoethanogenum DSM 10061) (protein)
chain: MKGFAMLGINKLGWIEKKNPVPGPYDAIVHPLAVSPCTSDIHTVFEGALGNRENMILGHEAVGEIAEVGSEVKDFKVGDRVIVPCTTPDWRSLEVQAGFQQHSNGMLAGWKFSNFKDGVFADYFHVNDADMNLAILPDEIPLESAVMMTDMMTTGFHGAELADIKMGSSVVVIGIGAVGLMGIAGSKLRGAGRIIGVGSRPVCVETAKFYGATDIVNYKNGDIVEQIMDLTHGKGVDRVIMAGGGAETLAQAVTMVKPGGVISNINYHGSGDTLPIPRVQWGCGMAHKTIRGGLCPGGRLRMEMLRDLVLYKRVDLSKLVTHVFDGAENIEKALLLMKNKPKDLIKSVVTF
Km [7]: 1940 ± 50 µM | kcat [7]: 29.9 ± 1.02 s⁻¹ | kcat/Km [7]: 15400 M⁻¹ s⁻¹ | Km [8]: 84560 ± 7960 µM

B2: Clostridium autoethanogenum BDH (2,3-butanediol dehydrogenase) variant BDH:S199A, SEQ ID NO: 16 (Clostridium autoethanogenum DSM 10061; S199A) (protein)
chain: MKGFAMLGINKLGWIEKKNPVPGPYDAIVHPLAVSPCTSDIHTVFEGALGNRENMILGHEAVGEIAEVGSEVKDFKVGDRVIVPCTTPDWRSLEVQAGFQQHSNGMLAGWKFSNFKDGVFADYFHVNDADMNLAILPDEIPLESAVMMTDMMTTGFHGAELADIKMGSSVVVIGIGAVGLMGIAGSKLRGAGRIIGVGARPVCVETAKFYGATDIVNYKNGDIVEQIMDLTHGKGVDRVIMAGGGAETLAQAVTMVKPGGVISNINYHGSGDTLPIPRVQWGCGMAHKTIRGGLCPGGRLRMEMLRDLVLYKRVDLSKLVTHVFDGAENIEKALLLMKNKPKDLIKSVVTF
Km [9]: 1080 ± 90 µM | kcat [9]: 40.8 ± 1.42 s⁻¹ | kcat/Km [9]: 37800 M⁻¹ s⁻¹
